Source: PMC7215373, “Design, Synthesis, and Anticancer Evaluation of Novel Indole Derivatives of Ursolic Acid as Potential Topoisomerase II Inhibitors” (International Journal of Molecular Sciences, 2020)
One block for each compound: values may come before it.

Experiments:
Human Topoisomerase IIα = target: T1, Human Topoisomerase IIα (Homo sapiens, UniProt P11388); test: Topoisomerase II relaxation assay (supercoiled pBR322); format: biochemical; conditions: for inhibition at 20 µM: 20 μM compound, read-out: Topo II Inhibition (%) 20 μM; for inhibition at 100 µM: 100 μM compound, read-out: Topo II Inhibition (%) 100 μM
T1 construct: purchased USB, Affymetrix, Waltham, MA, USA
T1 sequence (P11388 whole entry): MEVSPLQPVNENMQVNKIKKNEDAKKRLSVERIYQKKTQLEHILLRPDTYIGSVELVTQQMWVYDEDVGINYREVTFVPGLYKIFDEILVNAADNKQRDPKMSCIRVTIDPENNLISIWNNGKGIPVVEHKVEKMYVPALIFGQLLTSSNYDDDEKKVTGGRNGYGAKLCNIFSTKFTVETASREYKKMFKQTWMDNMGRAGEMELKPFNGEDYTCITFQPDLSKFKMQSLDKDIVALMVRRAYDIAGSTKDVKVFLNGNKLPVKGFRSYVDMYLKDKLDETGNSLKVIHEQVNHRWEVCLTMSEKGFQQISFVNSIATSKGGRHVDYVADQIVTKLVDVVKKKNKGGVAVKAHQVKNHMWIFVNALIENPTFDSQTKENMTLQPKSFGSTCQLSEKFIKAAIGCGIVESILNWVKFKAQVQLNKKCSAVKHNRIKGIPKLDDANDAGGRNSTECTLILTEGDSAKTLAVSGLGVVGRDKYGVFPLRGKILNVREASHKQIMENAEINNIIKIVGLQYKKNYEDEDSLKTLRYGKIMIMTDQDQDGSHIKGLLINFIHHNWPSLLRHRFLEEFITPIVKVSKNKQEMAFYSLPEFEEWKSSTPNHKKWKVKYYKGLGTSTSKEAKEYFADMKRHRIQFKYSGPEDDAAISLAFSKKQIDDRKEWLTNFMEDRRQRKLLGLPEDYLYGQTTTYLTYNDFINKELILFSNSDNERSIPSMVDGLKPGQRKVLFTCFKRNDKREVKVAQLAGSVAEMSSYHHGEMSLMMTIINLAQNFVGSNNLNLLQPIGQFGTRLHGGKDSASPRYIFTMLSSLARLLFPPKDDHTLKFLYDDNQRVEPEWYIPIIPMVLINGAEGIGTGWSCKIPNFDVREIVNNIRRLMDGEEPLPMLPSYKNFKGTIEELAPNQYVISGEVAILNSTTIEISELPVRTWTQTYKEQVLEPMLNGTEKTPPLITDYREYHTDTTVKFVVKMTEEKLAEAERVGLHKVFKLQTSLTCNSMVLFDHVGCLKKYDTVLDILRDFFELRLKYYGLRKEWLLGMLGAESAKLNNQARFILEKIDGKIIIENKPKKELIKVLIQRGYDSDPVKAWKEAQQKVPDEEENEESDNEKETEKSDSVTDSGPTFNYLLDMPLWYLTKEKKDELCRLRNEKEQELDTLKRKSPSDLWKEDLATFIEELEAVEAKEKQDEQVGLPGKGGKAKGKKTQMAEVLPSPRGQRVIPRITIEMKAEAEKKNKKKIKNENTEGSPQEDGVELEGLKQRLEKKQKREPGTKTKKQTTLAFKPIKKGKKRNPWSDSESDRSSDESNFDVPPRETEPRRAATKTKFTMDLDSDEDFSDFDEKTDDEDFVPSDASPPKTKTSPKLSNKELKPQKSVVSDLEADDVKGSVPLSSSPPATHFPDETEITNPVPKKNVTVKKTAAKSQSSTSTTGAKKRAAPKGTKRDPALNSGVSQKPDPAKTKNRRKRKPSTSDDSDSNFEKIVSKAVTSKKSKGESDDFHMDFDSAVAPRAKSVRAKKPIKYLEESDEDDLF
Method: The effect of the tested compounds on Topo I and II activities were evaluated by Topo I/II relaxation assays. The reaction products, relaxed DNA could be distinguished from supercoiled DNA by gel electrophoresis and visualized using gel imaging system. Human Topoisomerase IIα activity was detected by measuring the relaxation of supercoiled pBR322 plasmid DNA [22]. […] For inhibition studies, the compounds were pre-incubated with human Topo IIα and DNA for 15 min. Compounds were used at the appropriate concentrations by dissolving in 2% (v/v) DMSO. DMSO didn't show detrimental effect on the enzyme activity at concentration up to 2% (v/v). Reaction mixture was incubated at 37 °C for 30 min and stopped by the addition of 7 mM EDTA. Reaction product was mixed with DNA loading dye and electrophoresed on 1% TAE-Agarose. The gel was stained with ethidium bromide (0.5 μg/mL) for 30 min, destained twice in 1× TAE buffer, and then visualized using a BIO-RAD Gel Doc XR+ System. Etoposide (VP-16) was co-assayed as a positive control.

DNA topoisomerase I = target: T2, DNA topoisomerase I (Bos taurus, UniProt F1MN93); test: Topoisomerase I relaxation assay (supercoiled pBR322); format: biochemical; conditions: for inhibition at 20 µM: 20 μM compound, read-out: Topo I Inhibition (%) 20 μM; for inhibition at 100 µM: 100 μM compound, read-out: Topo I Inhibition (%) 100 μM
T2 construct: purchased TaKaRa, Kyoto, Japan
T2 sequence (F1MN93 1-767): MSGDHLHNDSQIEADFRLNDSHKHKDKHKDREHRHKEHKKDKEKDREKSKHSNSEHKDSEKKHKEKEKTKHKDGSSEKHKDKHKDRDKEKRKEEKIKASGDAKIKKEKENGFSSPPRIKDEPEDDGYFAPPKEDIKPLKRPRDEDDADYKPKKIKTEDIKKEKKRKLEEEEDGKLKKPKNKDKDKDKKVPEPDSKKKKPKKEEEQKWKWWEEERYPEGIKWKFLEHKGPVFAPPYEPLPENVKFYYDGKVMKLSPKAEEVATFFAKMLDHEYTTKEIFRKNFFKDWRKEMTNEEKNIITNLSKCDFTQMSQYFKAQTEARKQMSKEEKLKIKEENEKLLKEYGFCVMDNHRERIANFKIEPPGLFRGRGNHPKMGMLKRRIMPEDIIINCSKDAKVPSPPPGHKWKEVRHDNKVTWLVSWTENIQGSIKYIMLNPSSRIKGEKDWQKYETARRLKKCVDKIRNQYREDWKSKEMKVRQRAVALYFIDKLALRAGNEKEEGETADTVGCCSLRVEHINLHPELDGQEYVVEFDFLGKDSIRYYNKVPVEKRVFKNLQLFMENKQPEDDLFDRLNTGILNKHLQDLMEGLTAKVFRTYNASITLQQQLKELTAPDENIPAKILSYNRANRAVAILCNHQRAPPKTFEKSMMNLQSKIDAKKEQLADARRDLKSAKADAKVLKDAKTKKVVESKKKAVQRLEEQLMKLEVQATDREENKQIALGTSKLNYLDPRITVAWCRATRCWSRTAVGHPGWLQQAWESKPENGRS
Method: The effect of the tested compounds on Topo I and II activities were evaluated by Topo I/II relaxation assays. The reaction products, relaxed DNA could be distinguished from supercoiled DNA by gel electrophoresis and visualized using gel imaging system. The activity of DNA topoisomerase I (TaKaRa, Kyoto, Japan) was determined by measuring the relaxation of supercoiled DNA pBR322 [32]. Camptothecin was used as a positive control. The reaction mixture was prepared according to the manufacture's protocol, and incubated at 37 °C for 30 min. The reactions were terminated by adding dye solution containing 1% SDS, 0.02% bromophenol blue and 50% glycerol. The mixtures were applied to 1% agarose gel and subjected to electrophoresis for 1 h, in 1× TAE buffer (40 mM Tris-acetate, 1 mM EDTA). Gels were stained for 30 min in 60 mL 1× TAE buffer with ethidium bromide (0.5 μg/mL). DNA bands were visualized by transillumination with UV light and then photographed by a Gel Doc XR+ System (BIO-RAD, Hercules, CA, USA).

HepG2 cells = test: MTT cytotoxicity assay, HepG2; format: cell-based, human; conditions: 48 h exposure
Method: (§1) The in vitro cytotoxic activities of synthesized compounds were evaluated against two human hepatocarcinoma cell lines (SMMC-7721 and HepG2) and the human normal hepatocyte cell line (LO2) via MTT assay. All tested compounds were dissolved in DMSO and the stock solutions were diluted by DMEM medium before treatment of the cultured cells. […] Cell lines were obtained from American Tissue Culture Collection (ATCC). Briefly, different tumor cells were grown in DMEM medium supplemented with 10% fetal bovine serum, penicillin (100 U/mL), and streptomycin (50 μg/mL). Cells were harvested at log phase of growth and seeded in 96-well plates (100 μL/well at a density of 2 × 10^5 cells/mL). After 24 h incubation at 37 °C and 5% CO2 to allow cell attachment, cultures were exposed to various concentrations of the isolated compounds for 48 h. Finally, MTT solution (2.5 mg/mL in PBS) was added (40 μL/well). Plates were further incubated for 4 h at 37 °C, and the formazan crystals formed were dissolved by adding 150 μL/well of DMSO. Absorption at 570 nm was measured with an ELISA plate reader. […] Doxorubicin, camptothecin, and etoposide (VP-16) were co-assayed as positive controls.

SMMC-7721 cells = test: MTT cytotoxicity assay, SMMC-7721; format: cell-based, human; conditions: 48 h exposure
Method: as §1

LO2 cells = test: MTT cytotoxicity assay, normal hepatocyte LO2; format: cell-based; conditions: Homo sapiens, L02, 48 h exposure, normal hepatocyte cell line
Method: as §1

Compound: Cc1ccc2[nH]c3c(c2c1)C[C@@]1(C)C(CC[C@]2(C)C1CC=C1C4[C@@H](C)[C@H](C)CC[C@]4(C(=O)NCCCN)CC[C@]12C)C3(C)C (stereo partly drawn) [5a, N-(3-Aminopropyl)-5′-methyl-1′H-ursa-2,12-dieno[3,2-b]indol-28-carboxamide]
inhibition at 20 µM (Human Topoisomerase IIα): 31.2% | inhibition at 100 µM (Human Topoisomerase IIα): 72.3% | inhibition at 20 µM (DNA topoisomerase I): 12.4% | inhibition at 100 µM (DNA topoisomerase I): 24.5% | melting point: 205 to 207 °C | IC50 (HepG2 cells; Homo sapiens, HepG2, 48 h): 2.45 ± 0.38 µM | IC50 (SMMC-7721 cells; Homo sapiens, SMMC-7721, 48 h): 2.02 ± 0.21 µM | IC50 (LO2 cells): 21.3 ± 1.59 µM

Compound: CCN(CC)CCCNC(=O)[C@]12CC[C@@H](C)[C@H](C)C1C1=CCC3[C@@]4(C)Cc5c([nH]c6ccc(C)cc56)C(C)(C)C4CC[C@@]3(C)[C@]1(C)CC2 (stereo partly drawn) [5c, N-(3-(Diethylamino)propyl)-5′-methyl-1′H-ursa-2,12-dieno[3,2-b]indol-28-carboxamide]
inhibition at 20 µM (Human Topoisomerase IIα): 38.9% | inhibition at 100 µM (Human Topoisomerase IIα): 75.8% | inhibition at 100 µM (DNA topoisomerase I): 0% | melting point: 147 to 149 °C | IC50 (HepG2 cells; Homo sapiens, HepG2, 48 h): 1.2 ± 0.24 µM | IC50 (SMMC-7721 cells; Homo sapiens, SMMC-7721, 48 h): 1.15 ± 0.14 µM | IC50 (LO2 cells): 15.8 ± 1.06 µM

Compound: Cc1ccc2[nH]c3c(c2c1)C[C@@]1(C)C(CC[C@]2(C)C1CC=C1C4[C@@H](C)[C@H](C)CC[C@]4(C(=O)NCCCN4CCCCC4)CC[C@]12C)C3(C)C (stereo partly drawn) [5d, N-(3-(Piperidin-1-yl)propyl)-5′-methyl-1′H-ursa-2,12-dieno[3,2-b]indol-28-carboxamide]
inhibition at 20 µM (Human Topoisomerase IIα): 41.3% | inhibition at 100 µM (Human Topoisomerase IIα): 81.1% | inhibition at 100 µM (DNA topoisomerase I): 0% | melting point: 183 to 185 °C | IC50 (HepG2 cells; Homo sapiens, HepG2, 48 h): 1.04 ± 0.09 µM | IC50 (SMMC-7721 cells; Homo sapiens, SMMC-7721, 48 h): 0.89 ± 0.11 µM | IC50 (LO2 cells): 12.8 ± 0.83 µM

Compound: Cc1ccc2[nH]c3c(c2c1)C[C@@]1(C)C(CC[C@]2(C)C1CC=C1C4[C@@H](C)[C@H](C)CC[C@]4(C(=O)NCCCN4CCOCC4)CC[C@]12C)C3(C)C (stereo partly drawn) [5e, N-(3-Morpholinopropyl)-5′-methyl-1′H-ursa-2,12-dieno[3,2-b]indol-28-carboxamide]
inhibition at 20 µM (Human Topoisomerase IIα): 31.5% | inhibition at 100 µM (Human Topoisomerase IIα): 70.8% | inhibition at 100 µM (DNA topoisomerase I): 0% | melting point: 108 to 110 °C | IC50 (HepG2 cells; Homo sapiens, HepG2, 48 h): 5.27 ± 0.67 µM | IC50 (SMMC-7721 cells; Homo sapiens, SMMC-7721, 48 h): 3.75 ± 0.37 µM | IC50 (LO2 cells): 28.6 ± 0.76 µM

The next lines start with results.

inhibition at 20 µM (Human Topoisomerase IIα): 27% | inhibition at 100 µM (Human Topoisomerase IIα): 71.1% | inhibition at 20 µM (DNA topoisomerase I): 13.7% | inhibition at 100 µM (DNA topoisomerase I): 28.8% | melting point: 256 to 258 °C
Compound: Cc1ccc2[nH]c3c(c2c1)C[C@@]1(C)C(CC[C@]2(C)C1CC=C1C4[C@@H](C)[C@H](C)CC[C@]4(C(=O)NCCCCN)CC[C@]12C)C3(C)C (stereo partly drawn) [6a, N-(4-Aminobutyl)-5′-methyl-1′H-ursa-2,12-dieno[3,2-b]indol-28-carboxamide]
IC50 (HepG2 cells): 1.32 ± 0.21 µM | IC50 (HepG2 cells; Homo sapiens, HepG2, 48 h): ~1 µM | IC50 (SMMC-7721 cells): 1.21 ± 0.19 µM | IC50 (SMMC-7721 cells; Homo sapiens, SMMC-7721, 48 h): ~1 µM | IC50 (LO2 cells): 15.2 ± 1.15 µM

inhibition at 20 µM (Human Topoisomerase IIα): 31.7% | inhibition at 100 µM (Human Topoisomerase IIα): 69% | inhibition at 20 µM (DNA topoisomerase I): 0% | inhibition at 100 µM (DNA topoisomerase I): 15.1% | melting point: 163 to 165 °C
Compound: Cc1ccc2[nH]c3c(c2c1)C[C@@]1(C)C(CC[C@]2(C)C1CC=C1C4[C@@H](C)[C@H](C)CC[C@]4(C(=O)NCCCCN(C)C)CC[C@]12C)C3(C)C (stereo partly drawn) [6b, N-(4-(Dimethylamino)butyl)-5′-methyl-1′H-ursa-2,12-dieno[3,2-b]indol-28-carboxamide]
IC50 (HepG2 cells; Homo sapiens, HepG2, 48 h): 2.91 ± 0.18 µM | IC50 (SMMC-7721 cells; Homo sapiens, SMMC-7721, 48 h): 2.43 ± 0.21 µM | IC50 (LO2 cells): 18.2 ± 1.64 µM

inhibition at 20 µM (Human Topoisomerase IIα): 35.2% | inhibition at 100 µM (Human Topoisomerase IIα): 70% | inhibition at 20 µM (DNA topoisomerase I): 0% | inhibition at 100 µM (DNA topoisomerase I): 16.8% | melting point: 132 to 134 °C
Compound: CCN(CC)CCCCNC(=O)[C@]12CC[C@@H](C)[C@H](C)C1C1=CCC3[C@@]4(C)Cc5c([nH]c6ccc(C)cc56)C(C)(C)C4CC[C@@]3(C)[C@]1(C)CC2 (stereo partly drawn) [6c, N-(4-(Diethylamino)butyl)-5′-methyl-1′H-ursa-2,12-dieno[3,2-b]indol-28-carboxamide]
IC50 (HepG2 cells; Homo sapiens, HepG2, 48 h): 3.45 ± 0.25 µM | IC50 (SMMC-7721 cells; Homo sapiens, SMMC-7721, 48 h): 3.62 ± 0.23 µM | IC50 (LO2 cells): 28.4 ± 2.98 µM

inhibition at 20 µM (Human Topoisomerase IIα): 32.8% | inhibition at 100 µM (Human Topoisomerase IIα): 72.5% | inhibition at 100 µM (DNA topoisomerase I): 0% | melting point: 121 to 123 °C
Compound: Cc1ccc2[nH]c3c(c2c1)C[C@@]1(C)C(CC[C@]2(C)C1CC=C1C4[C@@H](C)[C@H](C)CC[C@]4(C(=O)NCCCCN4CCCCC4)CC[C@]12C)C3(C)C (stereo partly drawn) [6d, N-(4-(Piperidin-1-yl)butyl)-5′-methyl-1′H-ursa-2,12-dieno[3,2-b]indol-28-carboxamide]
IC50 (HepG2 cells; Homo sapiens, HepG2, 48 h): 2.31 ± 0.21 µM | IC50 (SMMC-7721 cells; Homo sapiens, SMMC-7721, 48 h): 2.72 ± 0.31 µM | IC50 (LO2 cells): 18.7 ± 1.36 µM

inhibition at 20 µM (Human Topoisomerase IIα): 9.7% | inhibition at 100 µM (Human Topoisomerase IIα): 23.8% | inhibition at 100 µM (DNA topoisomerase I): 0% | melting point: 301 to 303 °C
Compound: Cc1ccc2[nH]c3c(c2c1)C[C@@]1(C)C(CC[C@]2(C)C1CC=C1C4[C@@H](C)[C@H](C)CC[C@]4(C(=O)NCCNC(=O)[C@]45CC[C@@H](C)[C@H](C)C4C4=CCC6[C@@]7(C)Cc8c([nH]c9ccc(C)cc89)C(C)(C)C7CC[C@@]6(C)[C@]4(C)CC5)CC[C@]12C)C3(C)C (stereo partly drawn) [7a, N,N′-(ethane-1,2-diyl)-bis(5′-methyl-1′H-ursa-2,12-dieno[3,2-b]indol-28-carboxamide)]
IC50 (HepG2 cells; Homo sapiens, HepG2, 48 h): > 50 µM | IC50 (SMMC-7721 cells; Homo sapiens, SMMC-7721, 48 h): > 50 µM | IC50 (LO2 cells): > 50 µM
